Data reported in ChEMBL document CHEMBL1201862, “PubChem BioAssay data set” (2004).
Active and inactive are the calls of the source.

Columns and labels:
[1] = biological target: T1, Replicative DNA helicase DnaB (Mycobacterium tuberculosis, UniProt P9WMR3); test: DnaB intein splicing inhibitors, dose response, biochemical, cell-free fluorescence (AID 449749); assay type: functional
T1 sequence (P9WMR3 whole entry): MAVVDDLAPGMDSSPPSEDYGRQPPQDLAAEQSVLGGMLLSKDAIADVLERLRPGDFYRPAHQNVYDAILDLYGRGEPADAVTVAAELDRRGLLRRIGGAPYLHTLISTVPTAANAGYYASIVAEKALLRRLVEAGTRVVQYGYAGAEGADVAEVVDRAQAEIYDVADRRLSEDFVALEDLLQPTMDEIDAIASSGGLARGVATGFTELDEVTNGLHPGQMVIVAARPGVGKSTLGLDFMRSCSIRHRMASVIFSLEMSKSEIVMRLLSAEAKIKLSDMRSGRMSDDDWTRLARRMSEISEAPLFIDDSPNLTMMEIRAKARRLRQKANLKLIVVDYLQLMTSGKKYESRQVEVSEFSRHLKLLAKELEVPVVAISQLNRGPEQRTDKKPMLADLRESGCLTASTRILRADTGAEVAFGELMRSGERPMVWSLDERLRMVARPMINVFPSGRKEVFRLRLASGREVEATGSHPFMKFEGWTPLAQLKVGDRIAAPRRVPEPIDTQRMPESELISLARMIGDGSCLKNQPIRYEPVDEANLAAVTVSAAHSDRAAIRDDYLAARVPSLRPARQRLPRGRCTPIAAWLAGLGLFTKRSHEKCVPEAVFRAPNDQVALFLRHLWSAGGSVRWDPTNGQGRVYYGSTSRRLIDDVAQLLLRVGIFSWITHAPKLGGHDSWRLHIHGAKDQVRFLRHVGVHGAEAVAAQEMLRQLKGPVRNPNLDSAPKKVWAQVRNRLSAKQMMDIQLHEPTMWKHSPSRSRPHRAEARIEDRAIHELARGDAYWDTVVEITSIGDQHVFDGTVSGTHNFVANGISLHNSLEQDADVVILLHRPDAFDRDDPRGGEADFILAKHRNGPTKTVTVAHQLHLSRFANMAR

[2] = biological target: T2, Protein RecA (Mycobacterium tuberculosis, UniProt P9WHJ3); test: Fluorescence Cell-Free Homogeneous Dose Retest to Identify Inhibitors of RecA-Intein Splicing Activity. [Related pubchem assays (depositor defined):AID2097, AID2223, AID489010, AID492950]; assay type: functional
T2 sequence (P9WHJ3 whole entry): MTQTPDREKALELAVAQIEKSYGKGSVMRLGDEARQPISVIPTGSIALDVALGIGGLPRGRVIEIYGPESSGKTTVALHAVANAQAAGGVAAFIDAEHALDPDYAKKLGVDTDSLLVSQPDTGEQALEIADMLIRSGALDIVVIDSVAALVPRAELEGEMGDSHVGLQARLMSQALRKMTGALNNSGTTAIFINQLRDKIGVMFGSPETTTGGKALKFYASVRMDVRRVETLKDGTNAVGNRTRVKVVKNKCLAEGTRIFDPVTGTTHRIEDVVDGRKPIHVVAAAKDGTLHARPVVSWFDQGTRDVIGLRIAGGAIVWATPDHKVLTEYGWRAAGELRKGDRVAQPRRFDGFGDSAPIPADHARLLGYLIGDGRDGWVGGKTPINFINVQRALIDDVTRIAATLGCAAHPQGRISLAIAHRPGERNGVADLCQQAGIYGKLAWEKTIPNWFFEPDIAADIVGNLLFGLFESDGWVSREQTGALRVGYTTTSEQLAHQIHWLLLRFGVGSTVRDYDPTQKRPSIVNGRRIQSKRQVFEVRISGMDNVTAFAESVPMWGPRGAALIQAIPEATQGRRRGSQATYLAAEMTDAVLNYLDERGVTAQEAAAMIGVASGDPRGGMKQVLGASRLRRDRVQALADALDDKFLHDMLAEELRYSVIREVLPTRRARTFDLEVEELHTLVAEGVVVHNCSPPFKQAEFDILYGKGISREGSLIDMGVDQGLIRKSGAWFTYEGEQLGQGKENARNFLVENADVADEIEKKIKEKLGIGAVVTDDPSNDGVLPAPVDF

[3] = biological target: T3, Protein skinhead-1 (Caenorhabditis elegans, UniProt P34707); assay type: functional
T3 sequence (P34707 whole entry): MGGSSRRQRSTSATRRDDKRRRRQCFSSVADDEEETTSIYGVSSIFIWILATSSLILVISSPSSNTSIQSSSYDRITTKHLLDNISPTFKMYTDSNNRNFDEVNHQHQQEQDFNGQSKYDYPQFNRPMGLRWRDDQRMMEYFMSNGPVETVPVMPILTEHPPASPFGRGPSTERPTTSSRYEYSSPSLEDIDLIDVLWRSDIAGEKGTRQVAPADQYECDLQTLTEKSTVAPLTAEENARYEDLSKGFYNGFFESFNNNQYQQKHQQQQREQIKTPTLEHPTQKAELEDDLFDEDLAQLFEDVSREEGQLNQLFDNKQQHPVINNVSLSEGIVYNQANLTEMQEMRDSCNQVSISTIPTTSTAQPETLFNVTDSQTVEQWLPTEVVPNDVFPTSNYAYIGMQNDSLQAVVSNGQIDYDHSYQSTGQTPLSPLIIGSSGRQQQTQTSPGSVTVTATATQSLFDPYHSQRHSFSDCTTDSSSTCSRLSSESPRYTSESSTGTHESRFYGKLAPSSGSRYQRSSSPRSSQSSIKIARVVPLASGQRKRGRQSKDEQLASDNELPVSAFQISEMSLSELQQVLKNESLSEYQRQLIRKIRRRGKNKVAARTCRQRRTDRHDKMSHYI

[4] = biological target: T4, Polyadenylate-binding protein 1 (Homo sapiens, UniProt P11940); test: MLLE binding blockers, Cy5 peptide tracer – biochemical, fluorescence polarization, Cy5-PAM2 peptide, secondary, miRNA deadenylation inhibitor project, dose response (AID 602260); assay type: functional; conditions: read-out: IC50_Mean
[5] = biological target: T4, Polyadenylate-binding protein 1; test: MLLE domain peptide-binding blockers, IC50 – biochemical, fluorescence polarization, FITC-PAM2 peptide, dose response (AID 602259); assay type: functional; conditions: read-out: IC50_Mean
[6] = tested on: Streptococcus sp. 'group A'; test: Streptococcus pyogenes SK(-)GAS viability under kanamycin – luminescence, BacTiterGlo, confirmation, counter-screen for streptokinase expression inhibitor project, dose response (AID 1900); assay type: functional, organism-based
[7] = biological target: T5, Streptokinase A (Streptococcus pyogenes serotype M1, UniProt P10520); test: viability-normalized secreted streptokinase activity reduction – plasminogen activation absorbance, OD405, dose response (AID 1914); assay type: functional, Streptococcus pyogenes M1 GAS;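 note: secreted streptokinase activity via plasminogen activation per viability signal from cell pellet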
T5 sequence (P10520 whole entry): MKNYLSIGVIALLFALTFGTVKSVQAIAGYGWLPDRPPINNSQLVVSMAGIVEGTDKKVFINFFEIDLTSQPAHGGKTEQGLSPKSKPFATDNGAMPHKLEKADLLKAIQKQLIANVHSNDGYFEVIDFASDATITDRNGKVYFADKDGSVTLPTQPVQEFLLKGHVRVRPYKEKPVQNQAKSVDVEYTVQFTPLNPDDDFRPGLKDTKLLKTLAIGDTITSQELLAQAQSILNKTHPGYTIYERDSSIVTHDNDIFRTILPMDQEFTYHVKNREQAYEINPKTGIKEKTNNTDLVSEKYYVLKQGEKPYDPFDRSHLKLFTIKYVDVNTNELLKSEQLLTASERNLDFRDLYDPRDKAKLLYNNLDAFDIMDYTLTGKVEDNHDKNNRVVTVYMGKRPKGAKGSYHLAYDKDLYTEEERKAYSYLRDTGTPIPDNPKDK

[8] = tested on: Streptococcus; test: GAS UMAA2166 growth inhibition – luminescence, BacTiterGlo, counter-screen for streptokinase expression inhibitor project, dose response (AID 1915); assay type: functional, organism-based;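 note: potency for reduction of bacterial viability or growth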
[9] = biological target: T6, Heat shock factor protein 1 (Mus musculus, UniProt P38532); test: decrease of HSF1-responsive luciferase luminescence – cell-based, NIH3T3, dose retest, confirmation (AID 2382); assay type: functional;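 note: NIH3T3 fibroblasts with HSF1-driven luciferase reporter stressed by proteasome inhibitor MG132; luminescence from HSF1-driven luciferase expression after 8 hours of MG132 stress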
T6 sequence (P38532 whole entry): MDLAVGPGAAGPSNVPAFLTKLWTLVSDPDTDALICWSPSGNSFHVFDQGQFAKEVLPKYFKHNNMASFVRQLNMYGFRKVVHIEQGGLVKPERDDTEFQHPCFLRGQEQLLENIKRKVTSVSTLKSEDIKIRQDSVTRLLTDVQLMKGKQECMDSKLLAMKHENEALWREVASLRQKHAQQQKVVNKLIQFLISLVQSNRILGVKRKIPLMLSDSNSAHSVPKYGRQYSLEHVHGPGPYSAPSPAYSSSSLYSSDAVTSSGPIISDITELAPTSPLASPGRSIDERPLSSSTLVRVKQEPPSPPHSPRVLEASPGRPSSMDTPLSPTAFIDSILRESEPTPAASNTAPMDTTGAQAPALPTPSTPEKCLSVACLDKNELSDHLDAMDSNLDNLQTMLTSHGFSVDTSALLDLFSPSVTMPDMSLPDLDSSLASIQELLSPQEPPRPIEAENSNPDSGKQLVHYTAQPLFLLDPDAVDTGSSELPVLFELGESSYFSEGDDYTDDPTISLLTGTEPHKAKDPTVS

[10] = Trypanosoma cruzi growth suppression in host cells – NIH3T3 host cells, beta-gal luminescence, confirmation (AID 2044); assay type: functional, cell-based;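 note: intracellular parasites grown in NIH/3T3 mouse fibroblasts as host cells; luminescent beta-galactosidase reporter signal from transgenic T. cruzi replicating inside host cells; inhibitors lower the luminescence signal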
[11] = NIH3T3 cell viability loss – ATP luminescence, mouse fibroblasts, counter-screen, dose response (AID 2010); assay type: functional, cell-based;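 note: cells exposed to compound for about 90 hours before reading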
[12] = biological target: Cytochrome P450 2D6 (Homo sapiens, UniProt P10635);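 note: CYP2D6 member of a cytochrome P450 panel assay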
[13] = biological target: T7, Cytochrome P450 1A2 (Homo sapiens, UniProt P05177);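 note: PubChem cytochrome P450 panel assay, CYP1A2 panel member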
T7 sequence (P05177 whole entry): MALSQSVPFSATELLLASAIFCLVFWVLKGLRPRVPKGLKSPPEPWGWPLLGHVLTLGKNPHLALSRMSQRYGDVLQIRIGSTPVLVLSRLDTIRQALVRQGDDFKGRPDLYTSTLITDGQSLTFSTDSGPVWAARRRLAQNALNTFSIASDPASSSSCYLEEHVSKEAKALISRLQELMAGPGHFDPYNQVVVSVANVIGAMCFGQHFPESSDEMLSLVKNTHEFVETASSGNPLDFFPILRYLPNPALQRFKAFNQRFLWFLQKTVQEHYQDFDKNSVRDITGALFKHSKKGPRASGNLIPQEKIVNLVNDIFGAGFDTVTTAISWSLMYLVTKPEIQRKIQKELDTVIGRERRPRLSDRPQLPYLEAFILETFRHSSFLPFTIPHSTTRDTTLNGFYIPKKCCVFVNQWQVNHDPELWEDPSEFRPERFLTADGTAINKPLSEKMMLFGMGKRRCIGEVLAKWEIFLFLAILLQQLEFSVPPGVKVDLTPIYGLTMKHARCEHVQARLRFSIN

[14] = biological target: Cytochrome P450 3A4 (Homo sapiens, UniProt P08684);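 note: CYP3A4 tested as one member of a cytochrome P450 panel screen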
[15] = P. falciparum Dd2 growth inhibitors, dose response, SYBR Green, cherry-picked samples (AID 1159567); assay type: functional, cell-based

T4 sequence (P11940 whole entry, the tested form may be a part): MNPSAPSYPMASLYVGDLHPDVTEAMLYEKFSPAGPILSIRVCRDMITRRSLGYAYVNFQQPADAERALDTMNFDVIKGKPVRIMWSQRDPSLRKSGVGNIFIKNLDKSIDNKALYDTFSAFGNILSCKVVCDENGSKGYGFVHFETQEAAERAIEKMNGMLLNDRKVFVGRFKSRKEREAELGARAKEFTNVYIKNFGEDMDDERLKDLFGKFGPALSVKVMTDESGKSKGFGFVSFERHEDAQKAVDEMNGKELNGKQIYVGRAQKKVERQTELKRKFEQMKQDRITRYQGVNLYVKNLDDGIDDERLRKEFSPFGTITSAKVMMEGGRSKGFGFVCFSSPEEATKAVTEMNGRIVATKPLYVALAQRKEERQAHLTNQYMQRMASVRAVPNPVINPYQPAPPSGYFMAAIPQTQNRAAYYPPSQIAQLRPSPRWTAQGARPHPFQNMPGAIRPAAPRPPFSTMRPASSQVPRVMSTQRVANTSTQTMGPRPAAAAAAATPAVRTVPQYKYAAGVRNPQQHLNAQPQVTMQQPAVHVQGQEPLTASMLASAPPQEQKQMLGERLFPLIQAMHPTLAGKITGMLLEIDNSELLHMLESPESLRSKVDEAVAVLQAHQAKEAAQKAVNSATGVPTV
Chain of Cytochrome P450 2D6 (P10635 whole entry): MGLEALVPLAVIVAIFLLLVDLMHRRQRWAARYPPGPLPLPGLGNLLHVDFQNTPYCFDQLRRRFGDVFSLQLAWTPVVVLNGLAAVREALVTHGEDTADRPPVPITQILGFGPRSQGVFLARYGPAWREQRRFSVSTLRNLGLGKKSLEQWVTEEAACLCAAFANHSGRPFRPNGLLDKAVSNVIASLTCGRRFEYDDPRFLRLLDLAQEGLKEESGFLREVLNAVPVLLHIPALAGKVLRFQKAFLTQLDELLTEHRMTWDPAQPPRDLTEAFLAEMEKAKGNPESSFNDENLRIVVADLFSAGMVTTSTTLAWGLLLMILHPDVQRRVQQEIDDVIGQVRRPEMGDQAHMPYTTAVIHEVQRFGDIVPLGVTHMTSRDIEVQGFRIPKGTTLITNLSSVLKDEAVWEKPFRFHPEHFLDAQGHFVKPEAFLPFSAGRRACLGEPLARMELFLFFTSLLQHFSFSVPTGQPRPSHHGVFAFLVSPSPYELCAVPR
Chain of Cytochrome P450 3A4 (P08684 whole entry): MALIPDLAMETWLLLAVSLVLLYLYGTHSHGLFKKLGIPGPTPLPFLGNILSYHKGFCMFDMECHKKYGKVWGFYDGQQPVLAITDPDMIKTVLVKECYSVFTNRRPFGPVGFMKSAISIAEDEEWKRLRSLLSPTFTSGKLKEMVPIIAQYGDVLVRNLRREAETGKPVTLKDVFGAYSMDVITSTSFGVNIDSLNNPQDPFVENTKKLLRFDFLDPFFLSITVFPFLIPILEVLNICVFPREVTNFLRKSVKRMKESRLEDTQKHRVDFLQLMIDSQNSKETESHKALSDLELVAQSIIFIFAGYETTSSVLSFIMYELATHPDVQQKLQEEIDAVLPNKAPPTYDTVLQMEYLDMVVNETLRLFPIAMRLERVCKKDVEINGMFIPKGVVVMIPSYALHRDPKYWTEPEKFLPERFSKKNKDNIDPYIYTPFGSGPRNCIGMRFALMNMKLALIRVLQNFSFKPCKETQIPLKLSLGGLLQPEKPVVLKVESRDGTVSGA

COc1cc(/C=C(\C#N)c2nc3ccccc3o2)ccc1O
AC50 [1]: > 380 µM (inactive)
EC50 [2]: 2.41 µM (active)

Cc1cc2ccccc2n1CCNC(=O)C1CC1
IC50 [3]: > 100 µM (inactive)

Cc1c(NC(=O)Oc2ccccc2)sc(=S)n1C
IC50 [4]: > 66 µM (inactive)
IC50 [5]: > 66 µM (inactive)

Fc1ccc(SCCc2ccncc2)cc1
IC50 [4]: > 66 µM (inactive)
IC50 [5]: > 66 µM (inactive)

O=C(CSc1nc[nH]n1)Nc1ccc(Cl)c(Cl)c1
IC50 [3]: > 100 µM (inactive)

CC(C)c1nc(SCC(=O)Nc2ccc(N3CCOCC3)cc2)c2ccccc2n1
IC50 [4]: > 66 µM (inactive)
IC50 [5]: > 66 µM (inactive)

O=C(CSc1nnc(COc2cccc3ccccc23)o1)N1c2ccccc2CCc2ccccc21
IC50 [3]: > 100 µM (inactive)

Cc1c(C)n(Cc2ccc(F)cc2)c2ccc(C(=O)N3CCN(c4ccccn4)CC3)cc12
EC50 [6]: 16.5 µM (active)
EC50 [7]: 146 µM (inconclusive)
EC50 [8]: 28.4 µM (active)
IC50 [3]: > 100 µM (inactive)

O=[N+]([O-])c1cccc(NC(S)=Nc2nc(-c3ccccc3Cl)cs2)c1
IC50 [4]: > 66 µM (inactive)
IC50 [5]: > 66 µM (inactive)

Fc1ccc2c(c1)c1nnc(S)nc1n2CCc1ccccc1
IC50 [4]: > 66 µM (inactive)
IC50 [5]: > 66 µM (inactive)

COC(=O)C(C#N)C(c1cccnc1)c1c(C)n[nH]c1O (stereo not drawn)
AC50 [1]: 3.08 µM (active)
EC50 [2]: 1.2 µM (active)

O=C(CCl)N1N=C(c2cccs2)CC1c1ccco1 (stereo not drawn)
EC50 [9]: 6.29 µM (active)
EC50 [10]: 1.98 µM (active)
EC50 [11]: 4.92 µM (active)
AC50 [1]: 25.1 µM (active)
EC50 [2]: 4.21 µM (active)

O=C(CSc1nc2ccccc2c(=O)n1CCCO)NCc1ccccc1
IC50 [4]: > 66 µM (inactive)
IC50 [5]: > 66 µM (inactive)
AC50 [12]: 39.8 µM (inconclusive)
AC50 [13]: 31.6 µM (inconclusive)
AC50 [14]: 3.55 µM (inconclusive)

CC1(Cc2cccc(C(F)(F)F)c2)C(=O)Nc2ccc(-c3ccc(F)c(Cl)c3)cc21 (stereo not drawn)
IC50 [3]: > 100 µM (inactive)

Cn1nccc1-c1ccc(C(=O)Nc2cccc(NS(C)(=O)=O)c2)c2occc12
IC50 [3]: > 100 µM (inactive)

O=C(Nc1cccc(F)c1)N1CC(=O)N2[C@H](C1)[C@@H](c1ccc(C#CC3CC3)cc1)[C@@H]2CO
AC50 [15]: 8.07 µM (active)

CCC(=O)Nc1ccc2c(c1)OC[C@@H](C)N(Cc1cccc(F)c1)C[C@@H](C)[C@H](OC)CN(C)C2=O
AC50 [15]: 3.64 µM (active)

Cc1ccccc1S(=O)(=O)N1CC(=O)N2[C@H](CO)[C@H](c3ccc(C#CC4CC4)cc3)[C@@H]2C1
AC50 [15]: 8.89 µM (active)

C[C@H](CO)N1C[C@H](C)[C@@H](CN(C)CC2CCCCC2)Oc2ccc(NC(=O)Nc3ccc(F)cc3)cc2CC1=O
AC50 [15]: 6.76 µM (active)

C[C@H](CO)N1C[C@H](C)[C@H](CN(C)S(=O)(=O)c2cccs2)OCc2ccccc2-c2c(n(C)c3ccccc23)C1=O
AC50 [15]: 26.1 µM (active)
